The kinase profiling compilation of Christmann-Franck et al. (2016)

Experiments:
Assay in all cases: KINOMEscan competition binding
ULK3 (mouse) = conditions: compound 10.0 µM; accession and sequence are those of the human protein
RPS6KA1 KD1 (human) = RPS6KA1 KD1 (human) (UniProt Q15418); conditions: compound 10.0 µM
MAP3K12 (human) = MAP3K12 (human) (UniProt Q12852); conditions: compound 10.0 µM
CSNK1G2 (human) = CSNK1G2 (human) (UniProt P78368); conditions: compound 10.0 µM
MYLK3 (human) = MYLK3 (human) (UniProt Q32MK0); conditions: compound 10.0 µM
Sequence of MYLK3 (human) (Q32MK0 whole entry, looked up): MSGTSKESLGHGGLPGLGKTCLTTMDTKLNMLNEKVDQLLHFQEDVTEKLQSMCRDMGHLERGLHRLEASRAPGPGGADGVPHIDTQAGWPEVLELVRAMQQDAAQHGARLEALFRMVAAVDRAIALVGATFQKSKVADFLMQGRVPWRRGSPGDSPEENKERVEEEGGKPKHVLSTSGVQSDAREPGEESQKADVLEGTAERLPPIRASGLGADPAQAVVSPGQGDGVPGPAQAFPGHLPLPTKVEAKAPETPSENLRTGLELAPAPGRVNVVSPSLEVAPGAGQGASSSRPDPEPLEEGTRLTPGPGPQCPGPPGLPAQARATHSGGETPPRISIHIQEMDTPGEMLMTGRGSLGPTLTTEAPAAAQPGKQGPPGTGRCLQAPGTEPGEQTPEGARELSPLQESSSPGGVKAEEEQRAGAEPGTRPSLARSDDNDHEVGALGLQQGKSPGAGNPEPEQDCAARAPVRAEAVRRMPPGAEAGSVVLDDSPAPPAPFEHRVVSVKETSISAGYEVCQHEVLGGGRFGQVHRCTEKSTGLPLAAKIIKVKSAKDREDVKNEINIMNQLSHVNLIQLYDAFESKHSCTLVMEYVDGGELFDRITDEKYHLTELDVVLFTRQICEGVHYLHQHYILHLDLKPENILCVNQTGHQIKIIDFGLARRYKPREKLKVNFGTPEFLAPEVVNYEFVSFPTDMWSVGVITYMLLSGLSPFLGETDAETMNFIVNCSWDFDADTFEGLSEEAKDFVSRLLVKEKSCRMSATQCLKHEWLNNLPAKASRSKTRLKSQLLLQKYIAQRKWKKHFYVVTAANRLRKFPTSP

CDK19 (human) = CDK19 (human) (UniProt Q9BWU1); conditions: compound 10.0 µM
Sequence of CDK19 (human) (Q9BWU1 whole entry, looked up): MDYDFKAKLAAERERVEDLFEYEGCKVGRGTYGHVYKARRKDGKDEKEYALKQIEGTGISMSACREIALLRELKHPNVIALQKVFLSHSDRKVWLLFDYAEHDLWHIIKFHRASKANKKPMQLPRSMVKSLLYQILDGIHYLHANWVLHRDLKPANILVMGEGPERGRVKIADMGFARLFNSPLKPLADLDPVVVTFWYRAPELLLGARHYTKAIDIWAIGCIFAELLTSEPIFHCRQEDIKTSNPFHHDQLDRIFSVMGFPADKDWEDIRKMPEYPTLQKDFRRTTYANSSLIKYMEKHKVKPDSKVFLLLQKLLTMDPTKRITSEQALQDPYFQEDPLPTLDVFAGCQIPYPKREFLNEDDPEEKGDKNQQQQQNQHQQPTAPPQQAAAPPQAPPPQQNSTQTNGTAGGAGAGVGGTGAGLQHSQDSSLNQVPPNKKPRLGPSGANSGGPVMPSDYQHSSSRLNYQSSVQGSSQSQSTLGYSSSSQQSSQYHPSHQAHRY

MAP3K5 (human) = MAP3K5 (human) (UniProt Q99683); conditions: compound 10.0 µM
Sequence of MAP3K5 (human) (Q99683 whole entry, looked up): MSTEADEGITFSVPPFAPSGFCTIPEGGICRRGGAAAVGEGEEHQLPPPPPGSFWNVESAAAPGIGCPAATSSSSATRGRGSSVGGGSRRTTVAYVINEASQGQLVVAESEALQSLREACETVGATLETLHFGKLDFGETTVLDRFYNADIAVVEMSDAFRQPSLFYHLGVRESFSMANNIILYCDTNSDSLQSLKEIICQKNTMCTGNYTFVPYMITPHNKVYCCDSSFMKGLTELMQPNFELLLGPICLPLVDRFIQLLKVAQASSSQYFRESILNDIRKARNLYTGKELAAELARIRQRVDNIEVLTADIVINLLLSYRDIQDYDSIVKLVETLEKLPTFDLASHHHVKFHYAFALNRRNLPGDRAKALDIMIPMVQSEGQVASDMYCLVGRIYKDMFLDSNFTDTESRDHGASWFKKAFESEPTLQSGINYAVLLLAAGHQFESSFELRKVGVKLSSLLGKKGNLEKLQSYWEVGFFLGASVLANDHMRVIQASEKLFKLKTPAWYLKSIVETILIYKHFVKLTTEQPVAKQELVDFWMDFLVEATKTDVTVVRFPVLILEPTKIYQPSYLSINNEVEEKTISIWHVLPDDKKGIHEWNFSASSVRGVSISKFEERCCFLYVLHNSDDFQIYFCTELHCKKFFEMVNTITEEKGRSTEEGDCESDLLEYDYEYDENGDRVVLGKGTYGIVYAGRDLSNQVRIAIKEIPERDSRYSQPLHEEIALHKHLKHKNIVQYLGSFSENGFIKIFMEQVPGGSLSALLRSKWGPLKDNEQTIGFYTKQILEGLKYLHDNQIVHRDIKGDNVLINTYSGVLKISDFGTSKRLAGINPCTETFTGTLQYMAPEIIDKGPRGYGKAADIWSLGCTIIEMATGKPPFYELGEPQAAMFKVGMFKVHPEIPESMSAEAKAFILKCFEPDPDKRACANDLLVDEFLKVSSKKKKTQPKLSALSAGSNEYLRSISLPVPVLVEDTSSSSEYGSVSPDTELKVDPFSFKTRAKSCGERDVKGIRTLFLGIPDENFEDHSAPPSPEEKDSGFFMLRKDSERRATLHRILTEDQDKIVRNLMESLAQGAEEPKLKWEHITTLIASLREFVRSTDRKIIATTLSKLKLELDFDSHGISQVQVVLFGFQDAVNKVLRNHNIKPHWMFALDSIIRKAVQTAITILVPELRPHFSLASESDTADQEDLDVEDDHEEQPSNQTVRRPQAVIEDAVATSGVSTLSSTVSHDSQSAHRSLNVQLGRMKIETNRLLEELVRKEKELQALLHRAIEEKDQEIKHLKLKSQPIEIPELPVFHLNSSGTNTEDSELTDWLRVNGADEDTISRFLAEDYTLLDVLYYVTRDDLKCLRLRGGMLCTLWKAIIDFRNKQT

Sequence of MAP3K12 (human) (Q12852 whole entry, looked up): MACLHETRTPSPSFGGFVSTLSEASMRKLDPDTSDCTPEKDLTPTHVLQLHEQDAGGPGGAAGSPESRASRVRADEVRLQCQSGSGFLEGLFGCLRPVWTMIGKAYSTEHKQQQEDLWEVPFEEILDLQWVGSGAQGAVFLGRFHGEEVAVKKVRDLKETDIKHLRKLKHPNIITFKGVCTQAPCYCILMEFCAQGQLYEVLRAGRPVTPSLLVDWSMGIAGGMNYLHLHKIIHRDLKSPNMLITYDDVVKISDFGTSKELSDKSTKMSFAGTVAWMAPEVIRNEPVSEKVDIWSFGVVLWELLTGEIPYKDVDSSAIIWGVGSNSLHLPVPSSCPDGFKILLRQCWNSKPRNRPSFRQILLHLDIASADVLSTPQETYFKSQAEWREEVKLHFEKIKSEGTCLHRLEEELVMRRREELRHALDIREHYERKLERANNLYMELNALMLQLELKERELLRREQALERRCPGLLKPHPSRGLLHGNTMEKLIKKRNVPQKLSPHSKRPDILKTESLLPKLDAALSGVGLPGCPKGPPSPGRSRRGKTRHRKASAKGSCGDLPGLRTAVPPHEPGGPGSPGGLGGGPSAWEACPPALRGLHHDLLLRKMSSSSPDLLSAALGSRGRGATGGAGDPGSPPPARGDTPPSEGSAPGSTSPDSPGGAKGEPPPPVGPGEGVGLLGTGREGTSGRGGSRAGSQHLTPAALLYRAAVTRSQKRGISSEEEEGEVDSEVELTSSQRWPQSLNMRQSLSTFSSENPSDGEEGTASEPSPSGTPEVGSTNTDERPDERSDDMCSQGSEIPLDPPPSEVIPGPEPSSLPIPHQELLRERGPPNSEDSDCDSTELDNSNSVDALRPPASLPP
Sequence of RPS6KA1 KD1 (human) (Q15418 whole entry, looked up): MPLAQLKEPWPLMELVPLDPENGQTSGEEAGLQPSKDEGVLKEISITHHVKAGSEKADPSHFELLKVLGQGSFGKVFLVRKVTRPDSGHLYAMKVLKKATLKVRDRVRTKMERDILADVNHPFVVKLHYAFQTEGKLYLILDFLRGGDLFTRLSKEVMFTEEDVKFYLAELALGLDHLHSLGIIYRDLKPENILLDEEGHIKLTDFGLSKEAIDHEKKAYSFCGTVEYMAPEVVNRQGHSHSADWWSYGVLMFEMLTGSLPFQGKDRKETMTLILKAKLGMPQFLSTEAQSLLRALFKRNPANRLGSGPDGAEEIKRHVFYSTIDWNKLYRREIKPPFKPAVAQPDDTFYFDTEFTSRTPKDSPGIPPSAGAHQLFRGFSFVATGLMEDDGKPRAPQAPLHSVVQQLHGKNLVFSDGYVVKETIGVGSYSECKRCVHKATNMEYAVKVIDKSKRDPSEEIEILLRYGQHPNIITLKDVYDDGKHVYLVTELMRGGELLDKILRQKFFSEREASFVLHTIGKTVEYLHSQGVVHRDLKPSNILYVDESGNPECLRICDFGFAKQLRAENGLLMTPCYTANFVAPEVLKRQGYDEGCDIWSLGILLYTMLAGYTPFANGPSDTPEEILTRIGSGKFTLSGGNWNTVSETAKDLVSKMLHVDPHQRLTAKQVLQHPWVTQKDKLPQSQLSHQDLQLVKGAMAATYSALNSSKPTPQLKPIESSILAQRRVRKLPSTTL
Sequence of CSNK1G2 (human) (P78368 whole entry, looked up): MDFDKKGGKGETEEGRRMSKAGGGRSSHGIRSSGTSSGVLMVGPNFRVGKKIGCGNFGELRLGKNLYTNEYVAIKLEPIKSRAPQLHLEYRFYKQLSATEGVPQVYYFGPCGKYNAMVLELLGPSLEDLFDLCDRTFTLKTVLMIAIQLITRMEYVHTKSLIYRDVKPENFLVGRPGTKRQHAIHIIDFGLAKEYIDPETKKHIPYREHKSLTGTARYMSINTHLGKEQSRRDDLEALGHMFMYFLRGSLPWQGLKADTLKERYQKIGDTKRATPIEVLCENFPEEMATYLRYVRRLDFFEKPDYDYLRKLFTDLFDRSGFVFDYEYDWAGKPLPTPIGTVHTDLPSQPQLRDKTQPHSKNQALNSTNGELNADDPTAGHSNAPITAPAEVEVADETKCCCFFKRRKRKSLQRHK

Row | SMILES | inhibition of binding (ULK3 (mouse)) [%] | inhibition of binding (RPS6KA1 KD1 (human)) [%] | inhibition (MAP3K12 (human)) [%] | also measured
1 | O[C@H]1CC[C@H](Nc2nccc(-n3nnc4ccccc43)n2)CC1 | – | < 50 | < 50 | inhibition of binding (CSNK1G2 (human)): < 50%
2 | O[C@H]1CC[C@H](Nc2nccc(-n3ncc4ccccc43)n2)CC1 | – | < 50 | < 50 | inhibition of binding (MYLK3 (human)): < 50%; inhibition (CDK19 (human)): < 50%
3 | O[C@H]1CC[C@H](Nc2nccc(-c3n[nH]c4ccccc34)n2)CC1 | – | – | – | inhibition of binding (MAP3K5 (human)): < 50%

The next lines start with results.

Row | inhibition of binding (ULK3 (mouse)) [%] | inhibition of binding (RPS6KA1 KD1 (human)) [%] | inhibition (MAP3K12 (human)) [%] | SMILES | also measured
4 | < 50 | – | – | O=C([C@H]1CC[C@H](Nc2nccc(-n3nnc4ccccc43)n2)CC1)N1CCOCC1 | –
5 | – | < 50 | < 50 | O[C@H]1CC[C@H](Nc2nccc(-n3ccc4ccccc43)n2)CC1 | –
6 | < 50 | – | – | N[C@H]1CC[C@H](Nc2nccc(-n3nnc4ccccc43)n2)CC1 | –
